Source: ChEMBL document CHEMBL2321768, “A multivalent approach towards linked dual-pharmacology prostaglandin F receptor agonist/carbonic anhydrase-II inhibitors for the treatment of glaucoma” (Bioorg Med Chem Lett, 2013)

How the values were obtained:
[1] = target: Prostaglandin F2-alpha receptor (Mus musculus) (UniProt P43117); test: Intrinsic activity at FP receptor in mouse 3T3 fibroblast cells assessed as maximum compound-evoked response; type: cell-based
[2] = target: Prostaglandin F2-alpha receptor (Mus musculus, UniProt P43117)
Description: Agonist activity at FP receptor in mouse 3T3 fibroblast cells assessed as intracellular calcium mobilization by FLIPR

in vitro [3] = details: rabbit
Description: Corneal permeability in rabbit corneal tissues mounted on vertical Using chambers

in vitro [4] = details: human, Caco-2
Description: Permeability across human Caco2 cells

Prostaglandin F2-alpha receptor (Mus musculus), sequence (P43117 whole entry): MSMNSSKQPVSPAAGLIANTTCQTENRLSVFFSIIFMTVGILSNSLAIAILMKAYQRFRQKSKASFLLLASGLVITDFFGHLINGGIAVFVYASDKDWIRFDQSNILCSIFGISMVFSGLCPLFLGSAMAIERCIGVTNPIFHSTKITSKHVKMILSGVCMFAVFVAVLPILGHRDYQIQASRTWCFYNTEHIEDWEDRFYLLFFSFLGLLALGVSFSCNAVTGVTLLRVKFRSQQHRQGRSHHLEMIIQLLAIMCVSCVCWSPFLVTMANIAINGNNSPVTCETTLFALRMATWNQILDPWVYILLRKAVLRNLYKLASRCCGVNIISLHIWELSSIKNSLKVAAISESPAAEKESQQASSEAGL
Prostaglandin F2-alpha receptor, sequence (P43117 whole entry): as above

Row | SMILES | Intrinsic activity [1] | EC50 [2] [µM] | Papp (in vitro [3]) [×10⁻⁶ cm/s] | Papp (in vitro [4]) [×10⁻⁶ cm/s]
1 | CCN(C(=O)/C=C/[C@@H]1[C@@H](C/C=C\CCCC(=O)O)[C@@H](O)C[C@H]1O)[C@H]1C[C@H](C)S(=O)(=O)C2SC(S(N)(=O)=O)=CC21 (some centres undefined) | – | > 5.01 | – | –
2 | CC(C)OC(=O)CCC/C=C\C[C@@H]1[C@@H](CNCC(=O)Nc2nnc(S(N)(=O)=O)s2)[C@H](O)C[C@@H]1O | – | > 5.01 | 3.1 | 2.1
3 | CCCCC[C@H](O)/C=C/[C@@H]1[C@@H](C/C=C\CCCC(=O)N(CC)[C@H]2CN(CCCOC)S(=O)(=O)C3SC(S(N)(=O)=O)=CC32)[C@@H](O)C[C@H]1O (some centres undefined) | – | > 5.01 | – | –
4 | CCN(C(=O)/C=C/[C@@H]1[C@@H](C/C=C\CCCC(=O)OC(C)C)[C@@H](O)C[C@H]1O)[C@H]1C[C@H](C)S(=O)(=O)C2SC(S(N)(=O)=O)=CC21 (some centres undefined) | – | > 5.01 | – | –
5 | NS(=O)(=O)c1nnc(NC(=O)CNC[C@@H]2[C@@H](C/C=C\CCCC(=O)O)[C@@H](O)C[C@H]2O)s1 | – | > 5.01 | 0.94 | 3
6 | COC(=O)CCC/C=C\C[C@@H]1[C@@H](c2cn(-c3ccc(S(N)(=O)=O)cc3)nn2)[C@H](O)C[C@@H]1O | – | > 5.01 | 2.1 | 3.2
7 | CCCCC[C@H](O)/C=C/[C@@H]1[C@@H](C/C=C\CCCC(=O)Nc2nnc(S(N)(=O)=O)s2)[C@@H](O)C[C@H]1O | 0.9 | 3.98 | 6.4 | 1.6
8 | CC(C)OC(=O)CCC/C=C\C[C@@H]1[C@@H](/C=C/C(=O)Nc2nnc(S(N)(=O)=O)s2)[C@H](O)C[C@@H]1O | – | > 5.01 | – | –

Further lines, results first:

Row | Intrinsic activity [1] | EC50 [2] [µM] | Papp (in vitro [3]) [×10⁻⁶ cm/s] | Papp (in vitro [4]) [×10⁻⁶ cm/s] | SMILES
9 | > 1 | 2 | 1.7 | 3.3 | NS(=O)(=O)c1ccc(-n2cc([C@@H]3[C@@H](C/C=C\CCCC(=O)O)[C@@H](O)C[C@H]3O)nn2)cc1
10 | – | > 5.01 | – | – | CCCCC[C@H](O)/C=C/[C@@H]1[C@@H](C/C=C\CCCC(=O)NCCc2ccc(S(N)(=O)=O)cc2)[C@@H](O)C[C@H]1O
11 | 1 | 0.00631 | 1.2 | 3.5 | O=C(O)CCC/C=C\C[C@@H]1[C@@H](CC[C@@H](O)CCc2ccccc2)[C@H](O)C[C@@H]1O [LATANOPROST ACID]
12 | 1 | – | 9.7 | 3.3 | CCCCC[C@H](O)/C=C/[C@@H]1[C@@H](C/C=C\CCCC(=O)O)[C@@H](O)C[C@H]1O [DINOPROST]
